Data reported in PMC10487316, “A high‐throughput microfluidic mechanoporation platform to enable intracellular delivery of cyclic peptides in cell‐based assays” (Bioengineering & Translational Medicine, 2023).
Where a SMILES comes first, the peptide text is derived from it. Bridges are numbered along the chain shown (N, C = ends). [ ]: non-standard residue; d: D form. dPhe(4-CF3) = N[C@H](Cc1ccc(C(F)(F)F)cc1)C(=O)O; dTrp(6-F) = N[C@H](Cc1c[nH]c2cc(F)ccc12)C(=O)O; R8 = C=CCCCCCC[C@@](C)(N)C(=O)O; R5 = C=CCCC[C@@](C)(N)C(=O)O; S5 = C=CCCC[C@](C)(N)C(=O)O

What was measured:
[1] = tested on: CellSensor p53RE-bla HCT116 cell line (p53 response element reporter); assay: HCT116 p53 β-lactamase reporter gene functional assay; type: cell-based, human; conditions: for p53 activation at 10 μM with and without DμVS: 10 μM peptide, unprocessed vs DμVS-processed cells
Description: The CellSensor™ p53RE‐bla HCT116 cell line (K1640, Thermo Scientific) was used for functional characterization of p53 pathway activation by DμVS‐delivered peptides. Assay was performed similarly to how previously described.[17] These cells harbor a stable integration of a β‐lactamase reporter gene under control of the p53 response element. Cells were maintained in McCoy's 5A medium (16600‐082, Invitrogen) with 10% dialyzed FBS (26400‐036, Invitrogen), blasticidin (R210‐01, Invitrogen), and penicillin/streptomycin according to the manufacturer's protocol. Peptides were synthesized as previously described.[16], [17] To set up the assay, peptides were first pre‐plated in assay medium (Opti‐MEM supplemented with 0.1 mM non‐essential amino acids [11140‐050, Invitrogen], 1 mM sodium pyruvate [11360‐070, Invitrogen], and penicillin/streptomycin) without FBS on 384‐well plates (Corning 3764) or 96‐well plates (Corning 3603) using a HP D300E digital dispenser (20 μl 384‐well, 50 μl 96‐well). Maximum DMSO concentration used was 0.3% v/v. Cells were washed, resuspended with 0.05% v/v trypsin, spun down for 5 min at 300× g, and resuspended in PBS. Cells were 70‐μm strained and then brought to a final cell density of 3 × 10^6 cells/ml in PBS. Cell suspension was connected to 15 mL P‐CAP of the DμVS system, and 2 mL were used to prime the system. DμVS process was then initiated at 120 psi and 20 μL (384‐well) or 50 μL (96‐well) were dispensed to microplate in wells that were pre‐defined in the Telios software and pre‐loaded with peptides 2× in assay medium. Unprocessed cells were added to the microplate in parallel. After DμVS processing/mixing with peptide, cells were incubated at 37°C for 4 h. β‐lactamase activity was detected using the ToxBLAzer loading kit (K1095, Invitrogen) according to the manufacturer's protocol. Plates were measured using the PHERAstar FSX microplate reader with a LiveBlazer optic module (1400‐G3M‐FI‐410‐530‐460, BMG Labtech). Maximum p53 activity was defined as the β‐lactamase activity induced by 30 μM MP‐081 (meanpos). Percent activation of individual samples (S) was calculated using the following equation, where meanveh represents the mean of vehicle controls: % activation=S−meanveh/meanpos−meanveh×100
Z‐factors were calculated using the formula: Z^′=1−3σpos+3σveh/meanpos−meanveh
Meanpos and σ pos represent the mean and standard deviation, respectively, of the raw ratiometric values for 30 μM MP‐081 and meanveh and σ veh represent the mean and standard deviation of the vehicle controls. Dose–response data EC50 values were determined using the “[Agonist] versus response—Variable slope (four parameters)” algorithm in GraphPad Prism. Single concentration data for expanded peptide set were analyzed using unpaired T‐tests with false discovery rate (FDR, 1.00%) multiple comparisons correction using the two‐stage step‐up (Benjamini, Krieger, and Yekutieli) method. Data were accumulated from at least five independent experimental runs.

MDM2 (1–125) protein = target: T1, MDM2 (1–125) protein (Homo sapiens, UniProt Q00987); assay: MDM2 binding assay (fluorescence anisotropy competition); conditions: competition vs 50 nM FAM-labeled 12/1 peptide, 250 nM MDM2; heat map of Figure 5a
T1 construct: made in house
T1 sequence (Q00987 1-125): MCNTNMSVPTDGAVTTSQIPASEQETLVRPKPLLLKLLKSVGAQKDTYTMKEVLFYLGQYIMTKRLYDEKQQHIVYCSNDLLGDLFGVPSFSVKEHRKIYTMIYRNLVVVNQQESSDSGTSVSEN
Description: MDM2 protein generation and binding studies were performed as described.[17] […] The competing molecules were then titrated against the complex of the FAM‐labeled peptide and protein. Curve‐fitting was carried out using Prism 4.0 (GraphPad) to determine K D values. Readings were carried out with an Envision Multilabel Reader (PerkinElmer). […] All titrations were carried out in triplicate.

| EC50 ([1]; DμVS-based assay format, expanded peptide set, read-out: DμVS-p53 reporter EC50 (validated hits, dose response)) | Kd (MDM2 (1–125) protein) | Compound | p53 activation at 10 μM with and without DμVS [1] |
| --- | --- | --- | --- |
| – | – | CC(=O)N[C@@H](CC(C)C)C(=O)N[C@H](C(=O)N[C@H](Cc1ccccc1)C(=O)N[C@]1(C)CCCCCCC=CCCC[C@@](C)(C(=O)N[C@@H](C)C(=O)N[C@@H](C)C(=O)N[C@@H](C)C(=O)N[C@@H](C)C(=O)N[C@@H](C)C(=O)N[C@H](C)C(N)=O)NC(=O)[C@H](CC(C)C)NC(=O)[C@H](CCC(N)=O)NC(=O)[C@H](C)NC(=O)[C@H](Cc2c[nH]c3ccccc23)NC(=O)[C@H](Cc2ccc(O)cc2)NC(=O)[C@H](CCC(=O)O)NC1=O)[C@@H](C)O [MP-990, Ac-Leu-Thr-DPhe-R8*-Glu-Tyr-Trp-Ala-Gln-Leu-S5*-Ala-Ala-Ala-Ala-Ala-DAla-NH2] (Ac-LT[dF][R8]EYWAQL[S5]AAAAA[dA]-NH2; staple 4-11) | no activity in either format |
| 1000 nM | – | H-Lys(N3)-betaAla-Leu-Thr-Phe-R8*-Glu-Tyr-Trp-Ala-Gln-Cba-S5*-Ser-Ala-Ala-Lys(mPEG24)-NH2 [MP-414] | showed functional activity |
| – | – | CC(C)C[C@@H](NC(=O)[C@@H](CC(C)C)NC(=O)[C@@H](CCCCN)NC(=O)[C@@H](CCC(=O)O)NC(=O)[C@@H](Cc1ccccc1)NC(=O)[C@@H](CC(N)=O)NC(=O)[C@@H](C)NC(=O)[C@@H](Cc1ccc(O)cc1)NC(=O)[C@@H](Cc1c[nH]c2ccccc12)NC(=O)[C@@H](C)NC(=O)[C@H](N)[C@H](C)O)C(=O)N[C@H](CCCNC(=N)N)C(N)=O [MP-182, H-DThr-DAla-DTrp-DTyr-DAla-DAsn-DPhe-DGlu-DLys-DLeu-DLeu-DArg-NH2] (H-[dT][dA][dW][dY][dA][dN][dF][dE][dK][dL][dL][dR]-NH2) | lack of activity |
| – | 1.7 nM | CC(C)C[C@H]1NC(=O)[C@@H](CC(C)C)NC(=O)[C@@](C)(NC(=O)[C@@H](CCC(=O)O)NC(=O)[C@@H](Cc2ccc(C(F)(F)F)cc2)NC(=O)[C@@H](CC(N)=O)NC(=O)[C@@H](C)NC(=O)[C@@H](Cc2ccc(O)cc2)NC(=O)[C@@H](Cc2c[nH]c3cc(F)ccc23)NC(=O)[C@@H](C)NC(=O)[C@H](N)[C@H](C)O)CCCC=CCCC[C@](C)(C(N)=O)NC1=O [MP-313, H-DThr-DAla-DTrp(6-F)-DTyr-DAla-DAsn-DPhe(4-CF3)-DGlu-S5*-DLeu-DLeu-R5*-NH2] (H-[dT][dA][dTrp(6-F)][dY][dA][dN][dPhe(4-CF3)][dE][S5][dL][dL][R5]-NH2; staple 9-12) | no p53 reporter activity improvement |
| – | – | CC(=O)N[C@@H](C(=O)N[C@H](C)C(=O)N[C@H](Cc1c[nH]c2ccccc12)C(=O)N[C@H](Cc1ccc(O)cc1)C(=O)N[C@H](C)C(=O)N[C@H](CC(N)=O)C(=O)N[C@H](Cc1ccccc1)C(=O)N[C@H](CCC(=O)O)C(=O)N[C@H](CCCCN)C(=O)N[C@H](CC(C)C)C(=O)N[C@H](CC(C)C)C(=O)N[C@H](CCCNC(=N)N)C(N)=O)[C@H](C)O [MP-183, Ac-DThr-DAla-DTrp-DTyr-DAla-DAsn-DPhe-DGlu-DLys-DLeu-DLeu-DArg-NH2] (Ac-[dT][dA][dW][dY][dA][dN][dF][dE][dK][dL][dL][dR]-NH2) | lack of activity |
